This data set can be described thus: Human HepG2 cell viability assay in 384 well format. The format is toxicity, cell-based. Also noted: dose 125 nL, time 70.5 hour; concentration not given beside the values. The conditions noted are these: HepG2 cells, read-out: Inhibition.

In the case of `COCC(=O)N1CCC2(CC1)CC(c1cnn(C)c1)C(=O)N2` (centres undefined), the cytotoxicity at 70.5 h was -6.84%.
Regarding `Cc1ccccc1C(=O)N1CC(C(=O)NCC2CC2)C2(CCOCC2)C1` (centres undefined), the cytotoxicity at 70.5 h was -1.13%.
With `Cc1nnc(N2CCCC3(CN(c4cccc(F)c4)CCO3)C2)o1` (centres undefined) the figure was 1.49%; with `Cc1cccc(CN2CCC3(CCCN(C(=O)CN(C)C)C3)C2=O)n1` (centres undefined), 2.41%; with `CN(Cc1cn2c(n1)CN(C(N)=O)CC2)Cc1ccco1`, -1.71%.
In the case of `O=C(NCC1CC1)C1CN(C(=O)c2ccnnc2)CC12CCOCC2` (centres undefined), the cytotoxicity at 70.5 h was -2.63%.
With `Cc1nnc(N2C[C@H](C(=O)NCc3ccco3)[C@@H]3CCO[C@@H]3C2)s1` the figure was -1.66%; with `CN1CC(=O)N(c2ccsc2)CC12CCN(Cc1nccn1C)C2` (centres undefined), -0.505%; with `Cc1nc([C@H]2C[C@@H]3CCN(C(=O)c4ccnnc4)C[C@H]3O2)sc1C`, -0.727%.
As to `COCCN1C(=O)CCC12CCCN(c1ncc(F)cn1)CC2` (centres undefined), the cytotoxicity at 70.5 h came out at 1.58%.
With `CCC1=N[C@@]2(CC[C@@H]3CN(S(=O)(=O)CC)C[C@@H]32)C(=O)N1CCOC` the figure was -2.77%; with `COCC1CN(C(=O)c2cccn2C)Cc2cnn(C)c21` (centres undefined), -0.85%; with `Cn1cnc2c1C(COCC1CC1)CN(C(=O)c1cccs1)C2` (centres undefined), 8.88%.
The value for `Cn1cnc2c1C(COCC1CC1)CN(C(=O)c1ccsc1)C2` (centres undefined) was 6.4%; that for `O=C(Cc1ccccn1)N1CCn2cc(Cn3cncn3)nc2C1` was 0.952%.
The value for `Cc1ccc(CN2C[C@@H](c3ccccc3)[C@@]3(CCNC3=O)C2)o1` was 2.86%; that for `CCS(=O)(=O)N1CCc2cc(C(=O)NC)c(N(C)C)nc2CC1` was 5.95%; that for `O=C(NCCC(O)c1ccccc1)c1ccco1` (centres undefined) was -8.79%.
With `O=C(CCn1nc(C(F)(F)F)c(Br)c1C1CC1)NN1CCOCC1`, the cytotoxicity at 70.5 h was -4.82%.
The value for `Cc1nn(C)c(C)c1C(=O)NN1CCOCC1` was -6.78%.
With `CS(=O)(=O)Nc1ccn(Cc2ccc(Cl)cc2)n1` the figure was 10.5%; with `CCn1ccc(NC(=O)c2cc(C)on2)n1`, -8.5%; with `CC1CCC(NC(=O)c2nn(C)cc2I)CC1` (centres undefined), -7.74%.
The value for `Cc1c(Cl)c(C(=O)NC(C)CN2CCOCC2)nn1C` (centres undefined) was 6.43%; that for `Cc1nn(C)c(C)c1CN(C)C(=O)c1cc(C(F)(F)F)n(C)n1` was -5.06%; that for `Cc1c(CN(C)C(=O)c2ccnn2C)cnn1C` was 6.18%.
For `COC(=O)C1=C(C)N=C2SCC(=O)N2C1c1cn(C)nc1C` (centres undefined), the cytotoxicity at 70.5 h was -9.65%.
With `CCn1ccc(CNC(=O)c2cc(OC)cc(OC)c2)n1` the figure was -10.5%; with `CCn1cc(NC(=O)C(C)n2ncc(Cl)c2C)c(C(=O)NC)n1` (centres undefined), -3.34%.
The value for `CCCNC(=O)c1nn(CC)cc1NC(=O)C(C)n1ncc(Cl)c1C` (centres undefined) was -5.37%; that for `CCn1cc(NC(=O)C(C)n2ncc(Cl)c2C)c(C(=O)OC)n1` (centres undefined) was -3.71%.
Regarding `Cc1ccnn1CCCNC(=O)C1CCN(S(C)(=O)=O)CC1`, the cytotoxicity at 70.5 h was -1.25%.
On to `COc1cccc(Cn2cc(N3C(=O)CCC3=O)cn2)c1`, for which the cytotoxicity at 70.5 h turned out to be 3.42%.
The value for `CCc1nnc(SCc2nonc2C)n1C1CC1` was -10.7%; that for `CCn1cc(-c2nn3c(C(F)(F)F)nnc3s2)c(C)n1` was -3.8%; that for `Cc1cc(C(F)(F)F)nc(N2CCN3CCCC3C2)n1` (centres undefined) was -10.5%.
With `Cc1ccc(-c2cc(C(F)(F)F)nc(N3CCOCC3)n2)s1` the figure was -11.3%; with `NC(=O)c1nc(-c2ccc(Cl)cc2Cl)oc1N`, -3.66%.
The value for `CCn1cc(CN(C)S(=O)(=O)c2cnn(C)c2)cn1` was -6.45%; that for `CC(Cn1cccn1)NC(=O)c1cc(C2CC2)nc2c1cnn2C` (centres undefined) was -9.86%.
`CC(CNC(=O)c1cc(C2CC2)nc2c1cnn2C)Cn1cccn1` (centres undefined): the cytotoxicity at 70.5 h was -6.63%.
With `CCn1ncc2c(C(F)(F)F)cc(-c3cnn(C)c3)nc21` the figure was -11.4%; with `Nc1nnc(CCCn2nnc(-c3ccccc3F)n2)s1`, -15.5%.
With `Clc1ccc2[nH]c3c(c2c1)CCCC3c1nn[nH]n1` (centres undefined) the figure was -6.09%; with `COc1ccc([C@@H]2NC(=O)N[C@H]3OCCC[C@H]32)cc1`, -4.38%; with `COc1c(C2SCC(=O)Nc3[nH]ncc32)cc2c(c1OC)OCO2` (centres undefined), -13.6%.
The value for `O=C1CC(c2ccc(F)cc2)c2snc(C(=O)O)c2N1` (centres undefined) was -10.3%.
With `COc1ccc(C2=NOC(C#N)C2)cc1` (centres undefined), the cytotoxicity at 70.5 h was determined as 8.47%.
Turning to `N#Cc1ccc(C2CC(=O)Nc3c(C(=O)O)nsc32)cc1` (centres undefined), the cytotoxicity at 70.5 h is -5.94%.
With `CCc1ccccc1NC(=O)c1cnn(C)c1C` the figure was -7.12%.
With `COC(=O)Cn1ccc(=O)c2ccc(OC)cc21`, the cytotoxicity at 70.5 h stood at 39.1%.
With `CCN(CC)C(=O)c1nnsc1-c1ccc(Cl)cc1` the figure was -17.2%; with `CS(=O)(=O)N1CCN(C(=O)c2cc(-c3cccs3)cs2)CC1`, -5.33%.
As to `CS(=O)(=O)N1CCN(C(=O)c2cc(-c3ccco3)cs2)CC1`, the cytotoxicity at 70.5 h turned out to be 0.0321%.
`O=C(c1cc(-c2ccco2)cs1)N1CCOCC1`: the cytotoxicity at 70.5 h is -0.411%.
With `O=C(NC1CC1)c1cc(Sc2ncccn2)ccn1` the figure was -14.6%; with `Cc1cc(C(=O)Nc2cnn(CC(F)(F)F)c2)nc(N(C)C)n1`, -1.64%; with `Cc1ccc(C(=O)Nc2c(C(=O)N(C)C)nn(C)c2C)cc1`, -4.31%.
With `Cc1c(NC(=O)c2ccc(Br)cc2)c(C(=O)N(C)C)nn1C` the figure was -6.74%; with `COc1ccc(C(=O)Nc2c(C(=O)N(C)C)nn(C)c2C)cc1`, -6.56%.
The value for `Cc1ccnn1C(C)C(=O)Nc1cc(-c2ccncc2)[nH]n1` (centres undefined) was -6.01%; that for `O=C(c1cc(-c2ccco2)cs1)N1CCCC1` was -16.3%.
Regarding `O=C1c2cnc(N3CCC(O)CC3)nc2CN1Cc1cccc(F)c1`, the cytotoxicity at 70.5 h was 22%.
The value for `NC(=O)CN1CCOCC(Cc2cccc(F)c2)C1` (centres undefined) was -12.7%.
The value for `NC(=O)CN1CCOCC(Cc2ccccc2Cl)C1` (centres undefined) was -3.99%; that for `Cc1ccnc(C2(C)CCCN2C(=O)c2cnccn2)n1` (centres undefined) was -10.4%; that for `CN(C)c1ncccc1CN1CCOC(C(=O)Nc2ccccc2)C1` (centres undefined) was -7.2%.
With `Cc1ccccc1CNC(=O)c1ccccc1-n1cc(CN)cn1` the figure was -8.06%; with `CN(C)c1cc(C2CCCN2Cc2ccccc2OCC(=O)O)ccn1` (centres undefined), -6.83%; with `O=C(c1ccno1)N1CCCC(c2ncncc2-c2ccncc2)C1` (centres undefined), -9.77%.
For `O=C(N1CCOCC1)N1CCCC(c2ncncc2-c2ccncc2)C1` (centres undefined), the cytotoxicity at 70.5 h is -9.55%.
The value for `Cc1cc(CN2CCC(C3Nc4ccccc4S(=O)(=O)N3)CC2)oc1C` (centres undefined) was -3.27%; that for `Cc1cc(-c2cnc(N3CCOCC3)nc2-c2cccnc2C)on1` was -4.33%; that for `Cc1cc(-c2cnc(N3CCNC(=O)C3)nc2-c2sccc2C)on1` was -6.64%.
With `CC(=O)N1CCCC(c2ccc(N3CCOCC3)cn2)C1` (centres undefined) the figure was -5.65%; with `COCC(=O)N1CCCCC1c1nccc(C)n1` (centres undefined), 3.46%.
`CC(=O)N1CCCC(c2ccc(Br)cn2)C1` (centres undefined): the cytotoxicity at 70.5 h is -6.22%.
As to `CCN1CCCC(c2cc(Nc3cnccn3)nc(C)n2)C1` (centres undefined), the cytotoxicity at 70.5 h is -6.21%.
With `O=C(C1CCC1)N1CCC(c2ncc3c(n2)CCNC3)CC1`, the cytotoxicity at 70.5 h was -6.1%.
Take `Cc1cc(C2CCCCCN2Cc2cn(C)nc2C)no1` (centres undefined): the cytotoxicity at 70.5 h was -6.86%.
With `CN1CCc2nc(C3CCCCN3Cc3ccccc3Cl)ncc2C1` (centres undefined) the figure was -4.18%; with `c1cnc(-c2cnc(N3CCCCC3)nc2C2CCCO2)cn1` (centres undefined), -5.56%.
The value for `O=C(c1cscn1)N1CCC(O)(Cn2ccc3ccncc32)CC1` was -6.76%; that for `CCc1cc(C(=O)N2CCC(O)(Cn3ccc4ccncc43)CC2)no1` was -5.47%.
The value for `O=C1CCCN1CC1CN(CC2CCOCC2)Cc2nccn2C1` (centres undefined) was -2.55%.
As for `c1cnc(N2CCOCC3(CN(Cc4nccs4)CCO3)C2)nc1` (centres undefined), the cytotoxicity at 70.5 h is -2.26%.
The value for `O=C(c1ccc(F)cc1)N1C[C@H]2CCC[C@@]2(COCc2ccncc2)C1` was -0.425%; that for `Cc1ccsc1C(=O)N1Cc2ncn(C)c2C(COCC2CC2)C1` (centres undefined) was 5.9%; that for `O=C(Cc1ccccn1)NCC1OCCc2cn(CC3CC3)nc21` (centres undefined) was 11.2%.
With `O=C(NC1CC1)[C@H]1C[C@H]2OCC[C@H]2N(Cc2cccc3ccccc23)C1` the figure was -0.842%.
The value for `O=C(c1ccco1)N1C[C@@H]2[C@@H](C1)OCC(=O)N2Cc1cccnc1` was 7.81%.
As for `O=S(=O)(C1CC1)N1C[C@H](Oc2ccccn2)[C@H]2OCCC[C@H]21`, the cytotoxicity at 70.5 h was -0.632%.
With `CN(C)S(=O)(=O)N1C[C@@H]2CN(Cc3ccoc3)CCO[C@@H]2C1` the figure was -4.48%; with `Cc1noc([C@@H]2C[C@H]3CN(CC4CCOCC4)C[C@H]3O2)n1`, 14.1%.
`O=S(=O)(C1CC1)N1CCC[C@]2(C[C@@H](Oc3ccccn3)CO2)C1`: the cytotoxicity at 70.5 h turned out to be 14.1%.
With `c1cn2c(n1)CN(C1CCOCC1)CC(CN1CCCC1)C2` (centres undefined) the figure was -2.92%; with `Cn1cc(CN2CCO[C@@H]3CN(C4CCCC4)C[C@@H]3C2)cn1`, 1.26%; with `CCOCC1CN(Cc2cccnc2OC)Cc2cnn(C)c21` (centres undefined), 2.89%.
As for `Cc1cc(C[C@@H]2COC[C@H]2NCc2ccc(C)c(C)c2)on1`, the cytotoxicity at 70.5 h was -7.12%.

Source of the values: ChEMBL document CHEMBL3507680, “University of Dundee, Gates Library screen for HepG2 cell viability”.
